Results as given in publication PMC9448382, “Fluorosulfate-containing pyrazole heterocycles as selective BuChE inhibitors: structure-activity relationship and biological evaluation for the treatment of Alzheimer’s disease” (Journal of Enzyme Inhibition and Medicinal Chemistry, 2022).
“Also recorded” adds a separate entry of the source.

Assays:
in vitro = assay: in vitro
Text: Based on prior work[40]^,[41], a parallel artificial membrane permeation assay (PAMPA) for the blood-brain barrier (BBB) was used to determine the ability of the test chemical to penetrate into the brain. Six commercial medicines were purchased from Aladdin Reagents to validate the methodology. Energy Chemical provided the DMSO and dodecane. Avanti Polar Lipids provided the porcine brain lipid (PBL). Millipore provided the donor 96-well filter microplate with a PVDF membrane (pore size […]) and the acceptor indented 96-well microplate. Corning Inc. provided the 96-well UV plate (COSTAR). DMSO was used to dissolve commercial medications and test compounds at a concentration of 20 mg/mL. They were then diluted 200 times in a solution of PBS (pH 7.4 ± 0.1)/EtOH (70/30, v/v) to achieve a final concentration of 100 µg/mL. The donor microplate's fifilter membrane was coated with 4 µL of PBL in dodecane (20 mg/mL). The donor wells were then filled with 200 µL of diluted chemical solution and 300 µL of PBS/EtOH (70/30, v/v). To make the membrane contact with buffer solution, the donor fifilter plate was carefully positioned on top of the acceptor plate to form a “sandwich” assembly. At 25 °C, the sandwich was left undisturbed. The donor plate was carefully removed after 18 h of incubation, and the concentrations of test chemicals in the donor and acceptor wells were quantified using a UV plate spectroscopic reader (PerkinElmer VICTOR Nivo, Finland). Each sample was analysed at three wavelengths, in at least three independent experiments, in four wells.
Pe, permeability, refers to the ability of compounds to permeate the membranes through passive diffusion in the blood-brain barrier penetration assays.

BuChE from horse serum = biological target: T1, BuChE from horse serum (Equus caballus, UniProt P81908); assay: biochemical; type: biochemical
T1 construct: BuChE from horse serum (C4290-1KU; Sigma); purchased Sigma C4290-1KU; host or cells: horse serum
Protocol: According to Ellman's method, assays were carried out on AChE from electric eel (C3389-500UN; Sigma) and BuChE from horse serum (C4290-1KU; Sigma). On a final volume of 500 μL, the experiment was carried out in 48-well plates. EeAChE or eqBuChE, 0.036 U/mL, and 0.1 M pH 8 phosphate buffer were added to each well. At 37 °C, they were pre-incubated for 20 min at various chemical concentrations. […] Along with the enzymatic breakdown of ACh or BuCh, the DTNB creates the yellow anion 5-thio-2-nitrobenzoic acid. In a Biotek Synergy HTX Multi-Mode reader, changes in absorbance were detected at 410 nm. Inhibition curves were used to calculate the IC50 values (log inhibitor concentration vs percent of inhibition). The same conditions were used in a control experiment without the inhibitor, and the blank comprised buffer, DMSO, DTNB, and substrate.
The IC50 values were calculated by SPSS 17.0.

[1] = biological target: T2, recombinant human AChE (hAChE) (Homo sapiens, UniProt P22303); assay: hAChE inhibition assay; type: biochemical
T2 construct: purchased Sigma C1682
Protocol: (§1) With 0.1 M pH 8 PBS, a DTNB solution (5 μM) was produced. Dissolve the test compound in DMSO to prepare a concentration of 2 × 10^−1 M stock solution. The solution was diluted in ethanol to five concentrations of 200, 100, 10, 1 and 0.1 μM, respectively. Measurement was carried out with 96-well plates, add 40 μL buffer, 10 μL test compound at a series of concentrations, and 10 μL AChE/BuChE in sequence. The mixture was then incubated at 37 °C for 10 min. Then add 20 μL DTNB, incubation at 37 °C for 10 min. […] For the blank value, 10 μL of ethanol was used instead of the inhibitor solution. The percentage of enzyme activity and the logarithm of compound concentration were used to express the inhibitory activity of compounds. IC50 was calculated by SPSS17.0.

hBuChE from human serum = biological target: T3, hBuChE from human serum (Homo sapiens, UniProt P06276); assay: hBuChE inhibition assay; type: biochemical; details: mean ± SEM
T3 construct: purchased Sigma B4186; host or cells: human serum (per result head)
Protocol: as §1

[2] = system: human hepatoblastoma cells HepG2; assay: Cytotoxicity MTT assay, HepG2 cells; details: 50 μM, 24 h
Protocol: Human hepatoblastoma cells HepG2 and human normal liver cells LO2 cells were cultured at 37 °C in DMEM containing 10% foetal bovine serum, 100 U/mL penicillin, and […] streptomycin in a humidified incubator with 5% CO2. The methyl thiazolyl tetrazolium (MTT) assay was used to assess cell cytotoxicity. In a 96-well plate, HepG2 cells and LO2 cells were injected at 1 × 10^4 cells per well. The cells were treated with various substances that were diluted in DMEM for 24 h after being cultivated for 24 h. The cells were then treated for 4 h with 20 µL 0.5 mg/mL MTT reagent. The cell culture was withdrawn after 4 h, and 150 µL DMSO were added to dissolve the formazan. […] Three independent tests were used to calculate cell viability.
Blank: cultured with fresh medium only.

ICR mice = assay: In vivo acute toxicity evaluation
Text: A total of 20 mice weighing 20‒25 g (F: M = 1: 1) were randomly allocated into two groups: control (n = 10) and experimental (n = 10). […] For two weeks, the mice's behaviour, appearance, and body weight changes were examined and documented. GraphPadPrism8.0 software was used to compare and summarise the body weights of the mice in the control and experimental groups.

eqBuChE = biological target: T4, eqBuChE (Equus caballus, UniProt P81908); assay: Kinetic study of eqBuChE inhibition; type: biochemical, horse
T4 construct: BuChE from horse serum (C4290-1KU; Sigma); purchased Sigma C4290-1KU; host or cells: horse serum
Protocol: The same test settings were used for kinetic studies, with six concentrations of substrate (0.1‒1 mM) and four concentrations of inhibitor (0‒1.6 µM). The effect of different doses of compound K3 on BuChE catalytic activity at 37 °C was also investigated. The final concentration of enzyme was changed (0‒0.18 U/mL) under the same test conditions as indicated in the assay methodology. For the assessment of reversible and irreversible inhibitor binding at enzyme, different concentrations of compound K3 (0, 0.4, 0.8, and 1.6 µM) were utilised.

Aβ1–42 = assay: Brain Aβ1–42 total amount by mouse ELISA kit; type: in vivo; details: mice, Aβ1–42 icv model, K3 10 mg/kg po, donepezil 15 mg/kg po
Protocol: In the Aβ1–42 oligomeric damage experiment, all mice were sacrificed after the behavioural research was completed, and the brains were collected to assess the total content of Aβ1–42 using a mouse ELISA kit. Each brain tissue sample was thoroughly homogenised in a grinder with 10 times PBS (pH = 7.4 ± 0.1) before being centrifuged for 5 min at 5000×g. The supernatant was separated for use. The detection technique followed the directions exactly, and the standard curve was created. Brain tissue Aβ1–42 content was calculated according to the linear regression equation. All values were expressed as mean ± SEM using GraphPadPrism8.0 software.

[3] = ICR mice, intragastric, 1.0 g/kg, 14 days

T4 sequence (P81908 whole entry): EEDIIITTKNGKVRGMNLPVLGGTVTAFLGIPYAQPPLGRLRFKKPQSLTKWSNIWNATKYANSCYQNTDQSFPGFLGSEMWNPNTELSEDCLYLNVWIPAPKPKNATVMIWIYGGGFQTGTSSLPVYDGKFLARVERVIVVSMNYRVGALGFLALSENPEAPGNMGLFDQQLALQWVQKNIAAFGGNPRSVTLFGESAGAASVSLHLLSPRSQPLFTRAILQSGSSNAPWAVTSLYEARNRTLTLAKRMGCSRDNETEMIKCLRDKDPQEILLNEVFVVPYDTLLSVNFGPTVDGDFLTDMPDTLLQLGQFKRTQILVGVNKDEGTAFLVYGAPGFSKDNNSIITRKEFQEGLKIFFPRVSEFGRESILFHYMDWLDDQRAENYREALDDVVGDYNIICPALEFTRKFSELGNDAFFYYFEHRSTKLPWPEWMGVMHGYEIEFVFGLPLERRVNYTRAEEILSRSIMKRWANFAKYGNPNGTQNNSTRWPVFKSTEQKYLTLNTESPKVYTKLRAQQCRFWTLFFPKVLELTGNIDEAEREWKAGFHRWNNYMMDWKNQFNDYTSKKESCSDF
T3 sequence (P06276 29-602): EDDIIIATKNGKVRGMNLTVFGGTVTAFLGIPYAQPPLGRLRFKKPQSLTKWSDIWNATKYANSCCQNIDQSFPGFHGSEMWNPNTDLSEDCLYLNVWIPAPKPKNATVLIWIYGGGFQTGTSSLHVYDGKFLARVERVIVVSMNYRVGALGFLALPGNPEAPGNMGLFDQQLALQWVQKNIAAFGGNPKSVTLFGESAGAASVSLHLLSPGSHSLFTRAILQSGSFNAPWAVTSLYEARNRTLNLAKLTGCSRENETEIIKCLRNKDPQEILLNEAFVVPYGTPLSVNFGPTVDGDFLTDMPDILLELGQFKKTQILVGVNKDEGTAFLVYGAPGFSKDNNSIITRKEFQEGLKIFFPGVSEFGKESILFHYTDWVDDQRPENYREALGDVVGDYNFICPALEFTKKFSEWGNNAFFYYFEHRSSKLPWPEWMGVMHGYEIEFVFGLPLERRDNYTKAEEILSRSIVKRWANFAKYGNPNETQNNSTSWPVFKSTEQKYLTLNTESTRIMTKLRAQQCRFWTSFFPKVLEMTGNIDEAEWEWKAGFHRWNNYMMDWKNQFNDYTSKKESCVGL
T1 sequence (P81908 whole entry): as the sequence (P81908 whole entry) above
T2 sequence (P22303 32-614): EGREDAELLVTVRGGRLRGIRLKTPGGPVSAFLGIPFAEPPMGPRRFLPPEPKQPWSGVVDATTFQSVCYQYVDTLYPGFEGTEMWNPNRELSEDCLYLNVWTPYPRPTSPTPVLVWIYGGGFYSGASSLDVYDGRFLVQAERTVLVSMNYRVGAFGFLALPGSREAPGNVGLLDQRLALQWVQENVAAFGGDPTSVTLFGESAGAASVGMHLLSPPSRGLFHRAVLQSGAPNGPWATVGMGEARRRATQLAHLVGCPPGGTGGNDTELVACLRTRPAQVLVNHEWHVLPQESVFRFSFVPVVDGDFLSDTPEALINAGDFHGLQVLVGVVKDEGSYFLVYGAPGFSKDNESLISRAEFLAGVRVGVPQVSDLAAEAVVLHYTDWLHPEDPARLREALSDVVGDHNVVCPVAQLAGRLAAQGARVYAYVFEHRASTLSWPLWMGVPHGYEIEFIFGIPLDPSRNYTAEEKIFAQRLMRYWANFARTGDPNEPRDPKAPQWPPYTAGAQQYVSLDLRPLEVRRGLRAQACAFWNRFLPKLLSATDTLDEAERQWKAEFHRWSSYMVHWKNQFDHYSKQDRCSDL

O=S(=O)(F)Oc1cc(-c2ccccc2)nn1-c1ccc(Cl)cc1 [Compound K3]
Papp (in vitro; PAMPA, pH 7.4): 7.2 ×10⁻⁶ cm/s
Pe Exp. value (in vitro; PAMPA-BBB, 18 h, 25 °C, three independent experiments): above 4 ×10^-6cm/s
IC50 (BuChE from horse serum): 790 ± 320 nM
inhibition at 20 µM [1]: 31.6 ± 5.74%
IC50 (hBuChE from human serum): 6.59 ± 3.54 µM
cell survival rate [2]: 87.9%
differences in body weight changes vs vehicle group (ICR mice; [3]): not significant
tolerability in single-dose acute toxicity assay (ICR mice; [3]): well tolerated
tolerated dose (ICR mice; mice, in vivo safety experiments): 1.0 g/kg
reversibility of BuChE inhibition (eqBuChE; K3 0, 0.4, 0.8, 1.6 μM, enzyme 0‒0.18 U/mL): reversible
type of BuChE inhibition (eqBuChE; Lineweaver-Burk plots): mixed and non-competitive; also recorded: mixed, and non-competitive
Ki (eqBuChE; Lineweaver-Burk secondary plots, read-out: dissociation constant Ki): 770 nM
decrease of Aβ1–42 peptides in brain (Aβ1–42): 17.6%
